Test results: article PMC6944674, “Comparison of the Hepatotoxic Potential of Two Treatments for Autosomal-Dominant Polycystic Kidney DiseaseUsing Quantitative Systems Toxicology Modeling” (Pharmaceutical Research, 2020)
Read-outs that look alike come from different tables or passages of the source.

Columns and labels:
HepG2 cells [1] = assay: ROS formation by DHE fluorescence (high-content imaging); type: cell-based; details: 24 hour incubation
Experimental: To assess the potential for lixivaptan and its metabolites to induce oxidative stress, assays to measure formation of reactive oxygen species (ROS) were conducted by Cyprotex and overseen by the authors. HepG2 cells were cultured in triplicate in the presence of each test article for 1 or 24 hours; the range of concentrations used for each test article is listed in Table B1. ROS formation was assayed by DHE fluorescence. Two independent studies in triplicate were conducted on HepG2 cells.

[2] = Intracellular concentration by LC/MS/MS in HepG2 cultures parallel to Seahorse assay; type: in vitro ADME; details: human, HepG2 cells, Seahorse medium
Experimental: (§1) The concentration of test compound at the site of action (i.e. hepatocytes) has been identified as highly influential in the selection of parameter values (7). To assess intracellular concentrations of the five test articles, identical HepG2 cultures were established in parallel and cell lysate concentrations of the test articles were measured by LC/MS/MS analysis. Intracellular concentrations of the test articles were calculated by correcting for cell lysate volume (100 µL) and the volume of HepG2 cells in each well, which was calculated by multiplying cell count per well by cellular volume per cell (2.85 pl/cell). One independent study in duplicate was conducted to assess intracellular concentrations of the test articles for Seahorse studies.

HepG2 cells [3] = assay: as above; type: in vitro ADME; details: Seahorse medium; for CIntracellular Fraction: cell lysate; for CHepatocyte: corrected for lysate and HepG2 cell volume
Experimental: as §1

[4] = system: mitochondrial electron transport chain; assay: ETC inhibition parameter from MITOsym simulation of OCR data, translated to DILIsym; details: calculated from 24 h HepG2 OCR data and measured intracellular concentrations; lower = higher risk
Excerpt: The parameters calculated in this manner were then translated to DILIsym parameters using a conversion factor based on the relative activity of rotenone in the in vitro vs. in vivo environment (7).

[5] = cited from earlier work
human BSEP = molecular target: T1, human BSEP (Homo sapiens, UniProt O95342); assay: BSEP vesicular transport inhibition assay (taurocholate, HEK-293 cell membrane vesicles); type: biochemical
T1 construct: host or cells: HEK-293 cell membrane vesicles
T1 sequence (O95342 whole entry): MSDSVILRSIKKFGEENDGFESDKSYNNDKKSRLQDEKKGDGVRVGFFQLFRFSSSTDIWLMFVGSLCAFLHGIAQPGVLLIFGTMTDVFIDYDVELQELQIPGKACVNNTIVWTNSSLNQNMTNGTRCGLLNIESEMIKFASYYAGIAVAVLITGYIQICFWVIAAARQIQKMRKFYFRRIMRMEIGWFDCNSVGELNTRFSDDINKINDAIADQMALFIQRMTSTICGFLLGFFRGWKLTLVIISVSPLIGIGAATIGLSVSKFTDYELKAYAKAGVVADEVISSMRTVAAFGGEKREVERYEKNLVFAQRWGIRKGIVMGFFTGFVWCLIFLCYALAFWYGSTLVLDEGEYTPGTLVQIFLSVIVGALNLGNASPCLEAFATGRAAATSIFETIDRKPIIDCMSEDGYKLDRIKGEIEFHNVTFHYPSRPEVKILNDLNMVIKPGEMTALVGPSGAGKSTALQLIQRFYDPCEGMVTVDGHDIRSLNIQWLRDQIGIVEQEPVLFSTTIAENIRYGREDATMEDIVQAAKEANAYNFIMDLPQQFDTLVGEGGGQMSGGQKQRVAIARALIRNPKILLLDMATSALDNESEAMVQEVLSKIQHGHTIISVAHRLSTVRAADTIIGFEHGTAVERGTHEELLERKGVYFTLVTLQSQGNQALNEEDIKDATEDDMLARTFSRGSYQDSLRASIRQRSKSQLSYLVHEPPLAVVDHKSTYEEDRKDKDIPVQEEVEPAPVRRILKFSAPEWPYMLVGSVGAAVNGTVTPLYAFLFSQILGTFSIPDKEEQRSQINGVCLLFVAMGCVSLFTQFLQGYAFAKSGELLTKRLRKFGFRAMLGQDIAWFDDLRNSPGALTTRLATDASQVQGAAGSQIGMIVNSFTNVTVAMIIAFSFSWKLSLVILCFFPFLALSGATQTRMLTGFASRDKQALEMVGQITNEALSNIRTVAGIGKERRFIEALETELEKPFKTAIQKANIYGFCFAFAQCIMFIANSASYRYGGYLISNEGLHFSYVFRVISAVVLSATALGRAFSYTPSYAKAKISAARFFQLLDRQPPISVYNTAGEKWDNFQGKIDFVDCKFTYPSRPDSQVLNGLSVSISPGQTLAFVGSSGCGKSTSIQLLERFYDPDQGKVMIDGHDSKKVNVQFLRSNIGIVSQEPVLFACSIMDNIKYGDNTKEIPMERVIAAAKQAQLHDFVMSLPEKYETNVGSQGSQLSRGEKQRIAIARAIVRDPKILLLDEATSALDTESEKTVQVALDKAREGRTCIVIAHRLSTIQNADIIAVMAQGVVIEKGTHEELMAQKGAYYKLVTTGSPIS
Experimental: (§2) The functional impact of lixivaptan, its three metabolites and tolvaptan on the human ABC (efflux) transporters BSEP and MRP3 and MRP4 was assessed for this project using in vitro vesicular transport inhibition assays. The inhibition of the human SLC (uptake) transporter NTCP was assessed using CHO cells stably expressing human NTCP. The concentration ranges used for the five test articles was determined based on the solubility of each compound in the assay solution. All transporter inhibition assays were conducted in triplicate by Solvo Biotechnology (Szeged, Hungary).
For the simulation of bile acid transporter inhibition by lixivaptan in DILIsym, parameter values were selected for BSEP canalicular transport, basolateral transport (encompassing both MRP3 and MRP4), and NTCP transport. The parameter values for each include the inhibition constant, defined as the IC50 or Ki value, and the inhibition type, defined as competitive, non-competitive, or mixed inhibition.
In vesicular transport inhibition assays, lixivaptan and its metabolites each inhibited BSEP-mediated probe substrate accumulation (Figure B1) and MRP4-mediated probe substrate accumulation (Figure B2) dose-dependently.
Figure B1. […] See Appendix A for more details.

[6] = cited from earlier work; remark: listed apart in the source
human NTCP = molecular target: T2, human NTCP (Homo sapiens, UniProt Q14973); assay: NTCP inhibition in CHO cells stably expressing human NTCP (taurocholate); type: cell-based
T2 sequence (Q14973 1-349): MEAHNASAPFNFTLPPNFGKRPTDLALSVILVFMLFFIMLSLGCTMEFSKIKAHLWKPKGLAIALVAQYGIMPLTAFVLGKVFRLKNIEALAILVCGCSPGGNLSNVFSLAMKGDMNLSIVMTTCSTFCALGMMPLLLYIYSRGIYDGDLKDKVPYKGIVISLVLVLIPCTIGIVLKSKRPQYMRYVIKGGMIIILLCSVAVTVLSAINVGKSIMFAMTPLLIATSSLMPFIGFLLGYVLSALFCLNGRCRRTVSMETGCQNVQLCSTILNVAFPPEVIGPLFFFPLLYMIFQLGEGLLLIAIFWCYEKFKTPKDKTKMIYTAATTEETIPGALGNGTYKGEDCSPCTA
Experimental: as §2
Figure B4. […] See Appendix A for more details.

[7] = End Stage Renal Disease patients, ref personal communication, proprietary data not shown

## Cc1ccc(F)cc1C(=O)Nc1ccc(C(=O)N2Cc3cccn3Cc3ccccc32)c(Cl)c1 [Lixivaptan, lixivaptan]
HepG2 cells [1]
  induction of oxidative stress in HepG2 cells: evidence for induction of oxidative stress
[2]; dose 0.5 µM
  Kp at 0.5 µM: 23.2
[2]; dose 1 µM
  Kp at 1 µM: 14.3
[2]; dose 5 µM
  Kp at 5 µM: 8.02
[2]; dose 10 µM
  Kp at 10 µM: 6.35
[2]; dose 25 µM
  Kp at 25 µM: 4.52
[2]; dose 40 µM
  Kp at 40 µM: 4.62
HepG2 cells [3]; dose 0.1 µM
  CIntracellular Fraction: 0 µM
  CHepatocyte: 0 µM
HepG2 cells [3]; dose 0.5 µM
  CIntracellular Fraction: 0.00582 µM
  CHepatocyte: 11.61 µM
HepG2 cells [3]; dose 1 µM
  CIntracellular Fraction: 0.00738 µM
  CHepatocyte: 14.34 µM
HepG2 cells [3]; dose 5 µM
  CIntracellular Fraction: 0.0193 µM
  CHepatocyte: 40.10 µM
HepG2 cells [3]; dose 10 µM
  CIntracellular Fraction: 0.0307 µM
  CHepatocyte: 63.51 µM
HepG2 cells [3]; dose 25 µM
  CIntracellular Fraction: 0.0525 µM
  CHepatocyte: 112.99 µM
HepG2 cells [3]; dose 40 µM
  CIntracellular Fraction: 0.0823 µM
  CHepatocyte: 184.62 µM
[4]
  Coefficient for ETC inhibition (DILIsym parameter): 535 µM
[5]; 100 mg BID, clinical, ref proprietary data not shown
  time to steady-state concentration: 6 days
[5]; 100 mg single dose, after 7 days, ref clinical study 0892A1-109-US
  recovery in single-dose mass balance study: 84%
[5]; [7]
  decrease of exposure (AUC) in renal failure patients vs subjects with normal renal function: approximately 30%
  decrease of peak concentration (Cmax) in renal failure patients vs subjects with normal renal function: approximately 30%
[5]; after 7 days of 100 mg BID, ref clinical study CK-LX1403 (data not shown)
  Cmax: 2000 nM
Human BSEP; read-out: BSEP inhibition constant (IC50)
  IC50: 15 µM
Human BSEP; vesicular transport inhibition assay
  inhibition of BSEP-mediated probe substrate accumulation: inhibited
[6]; 100 mg BID, 60 days, hyponatremia protocol, ref study CK-LX3401 (not shown)
  Clinical ALT >3X ULN: On treatment similar to placebo**
[6]; 400 mg BID, 7 days, ref clinical trial CK-LX1403
  Clinical ALT >3X ULN: no individuals out of 67 showed elevated ALT
Human NTCP; CHO cells
  inhibition of NTCP-mediated probe substrate accumulation: observed
Human NTCP; read-out: NTCP inhibition constant (IC50)
  IC50: 19 µM
